Data taken from patent US7365057B2, “Modified 2′ and 3′-nucleoside prodrugs for treating Flavivridae infections” (priority 2002, dated 2008).

Experiments:
HCV = conditions: ribavirin alone; Davis, Gastroenterology 2000; cited from earlier work
[1] = tested on: Vero 76, African green monkey kidney cells

Compound | effect on serum levels of HCV-RNA (HCV) | patients in whom serum amino transferase levels are reduced to normal (HCV) [%] | CC50 (MT-4) [µM] | CC50 [1] [µM] | CC50 (BHK) [µM]
NC(=O)c1ncn([C@@H]2O[C@H](CO)[C@@H](O)[C@H]2O)n1 [Ribavirin, 1-β-D-ribofuranosyl-1-1,2,4-triazole-3-carboxamide] | does not lower serum levels of HCV-RNA | 40 |  |  | 
β-D-2′-C-methyl-7-methyl-6-phenyl-3,3a,5,8a-tetrahydro-1,3,4,5,7a-penta-aza-s-indacen-8-one [Compound F] |  |  | > 100 | > 100 | > 100
